{"source": "patent US20140011839A1", "about": "“COMPOSITIONS AND METHODS FOR TREATING AND INHIBITING VIRAL INFECTIONS” (priority 2012, published 2014)", "key": {"HPV-11": {"tested_on": "HPV-11", "assay": "HPV transient replication assay (E1/E2 expression vectors plus ori plasmid, qPCR of replicated DNA)", "format": "cell-based, human papillomavirus", "conditions": "for SI90 (CC50/EC90): selectivity index", "from_the_text": "(§1) Specifically, in these tests, vectors for expression of an HPV genotype-matched set of viral El and E2 proteins (derived from virus strain HPV-11) along with an HPV ori-containing plasmid were cotransfected into HEK293 cells. […] Low molecular weight DNA was harvested 2 days post-transfection and digested with Dpnl and exonuclease Ill to remove unreplicated transfected plasmid DNA. The replicated DNA was then subjected to real time qPCR (quantitative polymerase chain reaction) analyses in triplicate. Two controls were performed. One was to omit the El expression vector to provide a background amount of undigested and unreplicated DNA. The other, positive control was treatment with the known inhibitor cidofovir, as mentioned above. A toxicity assay based upon cell viability at the time of harvest on day 2 was performed alongside each transient replication assay in 293 cells. The test compounds were added 4 hours post transfection for a total exposure of 44 hours. More than 1×10^5 cells were scored in a BioRad Automatic Cell Counter, with a determination of the total numbers, the numbers of trypan blue stained (dead) cells, and the % of dead cells."}, "[1]": {"assay": "toxicity assay based upon cell viability (trypan blue) alongside the replication assay", "conditions": "human", "from_the_text": "as §1"}}, "data": [{"smiles": "CCN(CC)Cc1cc(Nc2ccnc3cc(Cl)ccc23)ccc1O", "note": "[Amodiaquine, amodiaquine]", "values": [{"measurement": "SI90 (CC50/EC90)", "setting": "HPV-11", "value": ">2"}, {"measurement": "CC50 at 44 h", "setting": "[1]", "value": "> 100", "unit": "µM"}]}, {"smiles": "Nc1ccn(C[C@@H](CO)OCP(=O)(O)O)c(=O)n1", "note": "[Cidofovir, cidofovir]", "values": [{"measurement": "EC90", "setting": "HPV-11; Human papillomavirus, HPV-11 E1/E2 + ori plasmid in HEK293 cells, compounds tested at 1, 10, 100 μM, 44 hours exposure, read-out: EC90 (concentration that reduces viral replication by 90%)", "value": "> 200", "unit": "µM"}, {"measurement": "SI90 (CC50/EC90)", "setting": "HPV-11", "value": 1}, {"measurement": "CC50 at 44 h", "setting": "[1]", "value": "> 200", "unit": "µM"}]}]}
